According to article PMC8288134, “Synthesis, potential antitumor activity, cell cycle analysis, and multitarget mechanisms of novel hydrazones incorporating a 4-methylsulfonylbenzene scaffold: a molecular docking study” (Journal of Enzyme Inhibition and Medicinal Chemistry, 2021):
Read-outs that look alike come from different tables or passages of the source.

How the values were obtained:
CCRF-CEM [1] = assay: NCI antitumor screen (SRB); type: cell-based; conditions: Homo sapiens; for inhibition at 10 µM: one dose 10 µM, read-out: Growth inhibition percentage (GI%)
SK-MEL-28 [2] = assay: NCI antitumor screen (SRB); type: cell-based, human; conditions: for inhibition at 10 µM: read-out: Growth inhibition percentage (GI%)
T-47D = assay: NCI antitumor screen (SRB); type: cell-based; conditions: Homo sapiens, T47D; for inhibition at 10 µM: one dose 10 µM, read-out: Growth inhibition percentage (GI%)
OVCAR-4 = assay: NCI antitumor screen (SRB); type: cell-based; conditions: Homo sapiens; for inhibition at 10 µM: one dose 10 µM, read-out: Growth inhibition percentage (GI%)
SNB-19 = assay: NCI antitumor screen (SRB); type: cell-based; conditions: Homo sapiens; for inhibition at 10 µM: one dose 10 µM, read-out: Growth inhibition percentage (GI%)
HT29 = assay: NCI antitumor screen (SRB); type: cell-based; conditions: Homo sapiens; for inhibition at 10 µM: HT-29, one dose 10 µM, read-out: Growth inhibition percentage (GI%)
HS 578 T = assay: NCI antitumor screen (SRB); type: cell-based; conditions: Homo sapiens; for inhibition at 10 µM: one dose 10 µM, read-out: Growth inhibition percentage (GI%)
HL60 cells [3] = assay: Annexin V-FITC/PI apoptosis assay; type: cell-based, human; conditions: HL60, 10 µM, 24 h
Experimental: Apoptosis induction is the most important mechanism by which major chemotherapeutics kill cancer cells. Apoptosis causes cellular changes whereby the translocation of phosphatidylserine (PS) occurs through the plasma membrane from the inside to the outside. Annexin-V can bind to PS, which can be used as a sensitive probe for PS on the outer side of the plasma membrane. […] The AV/PI staining of HL60 cells was performed at a mixed molar concentration of 10 µM with compounds 6, 9, 16, and 20 for 24 h. Figure 4 and Table 5 show the results of treating HL60 cells with compounds 6, 9, 16, and 20 for 24 h.
According to our previous report, apoptosis induction was performed using the Leukaemia HL-60 cell line and well-established Annexin 5-FITC/PI detection kit. The cell line samples were analysed using FACSCalibur flow cytometer[40]^,[72]. […]
[(Ti-Tz)/Tz)] x 100 for concentration of which Ti ≤ Tz.
The induction of apoptosis was performed according to our previous report using Leukemia HL-
60 cell line and well-established Annexin 5-FITC/PI detection kit. The cell line samples were
analyzed using a FACSCalibur flow cytometer. […]

MOLT-4 [4] = assay: NCI antitumor screen (SRB); type: cell-based; conditions: Homo sapiens; for inhibition at 10 µM: one dose 10 µM, read-out: Growth inhibition percentage (GI%)
HCT-116 = assay: NCI antitumor screen (SRB); type: cell-based; conditions: Homo sapiens; for inhibition at 10 µM: read-out: Growth inhibition percentage (GI%)
MCF7 = assay: NCI antitumor screen (SRB); type: cell-based; conditions: Homo sapiens; for inhibition at 10 µM: one dose 10 µM, read-out: Growth inhibition percentage (GI%)
LOX IMVI = assay: NCI antitumor screen (SRB); type: cell-based; conditions: Homo sapiens; for inhibition at 10 µM: one dose 10 µM, read-out: Growth inhibition percentage (GI%)
OVCAR-5 = assay: NCI antitumor screen (SRB); type: cell-based; conditions: Homo sapiens; for inhibition at 10 µM: one dose 10 µM, read-out: Growth inhibition percentage (GI%)
HL60 cells [5] = assay: Cell cycle analysis (PI, flow cytometry); type: cell-based, human; conditions: HL60, 10.0 µM, 24 h
Experimental: Antitumor agents can induce apoptosis by activating signalling pathways, leading to G2/M phase arrest[73]^,[74]. Flow cytometry is used to measure cell growth in different cell cycle phases (pre-G1, G1, S, and G2/M)[73]^,[74]. […]. We used the solvent DMSO as a negative control. Briefly, we incubated HL60 cells with 10 µM compounds 6, 9, 16, and 20 for 24 h. Compounds 6, 9, 16, and 20 interfered with the normal cell cycle of HL60 cells. […] […].
Cell cycle analysis was carried out similar to our previous report using the Leukaemia HL-60 cell line stained with the DNA fluorochrome PI and analysed by FACSCalibur flow cytometer[40]^,[74].
Using a method similar to that of our previous report, cell cycle analysis was carried out using Leukemia HL-60 cell line, stained with the DNA fluorochrome PI, and analyzed by FACSCalibur flow cytometer. Leukemia HL-60 cell was seeded at a density of 2 × 10^5 cells/well and incubated for 24 h in six-well plates. Fetal bovine serum (10%) was added, and the cells were incubated at 37°C in an atmosphere of 5% CO2. The medium was replaced with 1% (v/v) dimethyl sulfoxide (DMSO), containing 10.0 μM of compound 9. […]
Afterward, […]
the samples were analyzed using a FACSCalibur flow cytometer. […]
(AA) to PGH2. […]

IGROV1 = tested on: IGROV1; design: method as in https://dtp.cancer.gov/dtpstandard/dwindex/index.jsp; conditions: reference drugs, ref https://dtp.cancer.gov/dtpstandard/dwindex/index.jsp; cited from earlier work
OVCAR-3 = tested on: OVCAR-3; design: method as in https://dtp.cancer.gov/dtpstandard/dwindex/index.jsp; conditions: reference drugs, ref https://dtp.cancer.gov/dtpstandard/dwindex/index.jsp; cited from earlier work
UACC-257 = tested on: UACC-257; design: method as in https://dtp.cancer.gov/dtpstandard/dwindex/index.jsp; conditions: reference drugs, ref https://dtp.cancer.gov/dtpstandard/dwindex/index.jsp; cited from earlier work
RXF 393 = tested on: RXF 393; design: method as in https://dtp.cancer.gov/dtpstandard/dwindex/index.jsp; conditions: reference drugs, ref https://dtp.cancer.gov/dtpstandard/dwindex/index.jsp; cited from earlier work
SK-MEL-2 = tested on: SK-MEL-2; design: method as in https://dtp.cancer.gov/dtpstandard/dwindex/index.jsp; conditions: reference drugs, ref https://dtp.cancer.gov/dtpstandard/dwindex/index.jsp; cited from earlier work
MOLT-4 [6] = tested on: MOLT-4; design: method as in https://dtp.cancer.gov/dtpstandard/dwindex/index.jsp; conditions: reference drugs, ref https://dtp.cancer.gov/dtpstandard/dwindex/index.jsp; cited from earlier work
CCRF-CEM [7] = tested on: CCRF-CEM; design: method as in https://dtp.cancer.gov/dtpstandard/dwindex/index.jsp; conditions: reference drugs, ref https://dtp.cancer.gov/dtpstandard/dwindex/index.jsp; cited from earlier work
[8] = tested on: melanoma tumour cell lines; conditions: cited from earlier work; for GI50: read-out: GI50 (subpanel average), reference drugs, ref https://dtp.cancer.gov/dtpstandard/dwindex/index.jsp; for TGI (subpanel average): reference drugs, ref https://dtp.cancer.gov/dtpstandard/dwindex/index.jsp
HOP-62 = tested on: HOP-62; design: method as in https://dtp.cancer.gov/dtpstandard/dwindex/index.jsp; conditions: reference drugs, ref https://dtp.cancer.gov/dtpstandard/dwindex/index.jsp; cited from earlier work
HCT-15 = tested on: HCT-15; design: method as in https://dtp.cancer.gov/dtpstandard/dwindex/index.jsp; conditions: reference drugs, ref https://dtp.cancer.gov/dtpstandard/dwindex/index.jsp; cited from earlier work
SK-OV-3 = tested on: SK-OV-3; design: method as in https://dtp.cancer.gov/dtpstandard/dwindex/index.jsp; conditions: reference drugs, ref https://dtp.cancer.gov/dtpstandard/dwindex/index.jsp; cited from earlier work
[9] = tested on: leukaemia tumour cell lines; conditions: cited from earlier work; for GI50: read-out: GI50 (subpanel average), reference drugs, ref https://dtp.cancer.gov/dtpstandard/dwindex/index.jsp; for TGI (subpanel average): reference drugs, ref https://dtp.cancer.gov/dtpstandard/dwindex/index.jsp
SK-MEL-28 [10] = tested on: SK-MEL-28; design: method as in https://dtp.cancer.gov/dtpstandard/dwindex/index.jsp; conditions: reference drugs, ref https://dtp.cancer.gov/dtpstandard/dwindex/index.jsp; cited from earlier work
[11] = five concentrations 0.01-100 µM
[12] = read-out: LC50 (subpanel average), reference drugs, ref https://dtp.cancer.gov/dtpstandard/dwindex/index.jsp

CS(=O)(=O)c1ccc(C(=O)N/N=C/c2ccccc2O)cc1 [Compound 16]
inhibition at 10 µM (CCRF-CEM [1]): 84.7%
inhibition at 10 µM (SK-MEL-28 [2]; Homo sapiens, SK-MEL-28, one dose 10 µM): 44.1%
inhibition at 10 µM (T-47D): 47.6%
inhibition at 10 µM (OVCAR-4): 56.3%
inhibition at 10 µM (SNB-19): 54.6%
inhibition at 10 µM (HT29): 56.4%
inhibition at 10 µM (HS 578 T): 18.5%
Apoptosis, early (HL60 cells [3]): 7.34%
Apoptosis, late (HL60 cells [3]): 13.41%
Apoptosis, total (annexin V-FITC positive cells) (HL60 cells [3]): 22.41%
Necrosis (HL60 cells [3]): 1.66%
inhibition at 10 µM (MOLT-4 [4]): 90.8%
inhibition at 10 µM (HCT-116): 70.9%
inhibition at 10 µM (MCF7): 77.5%
inhibition at 10 µM (LOX IMVI): 78.6%
inhibition at 10 µM (OVCAR-5): 35.3%
%G0-G1 (HL60 cells [5]): 39.42%
%G2-M (HL60 cells [5]): 38.09%
%Pre-G1 (HL60 cells [5]): 22.41%
%S (HL60 cells [5]): 22.49%

CCN(CC)c1ccc(/C=N/NC(=O)c2ccc(S(C)(=O)=O)cc2)c(O)c1 [Compound 20]
GI50 (CCRF-CEM [1]; [11]): 0.078 µM
inhibition at 10 µM (CCRF-CEM [1]): 93.1%
inhibition at 10 µM (SK-MEL-28 [2]; Homo sapiens, SK-MEL-28, SK-MEL-28, one dose 10 µM): 72.9%
GI50 (SK-MEL-28 [2]; Homo sapiens, SK-MEL-28, five concentrations 0.01-100 µM): 0.34 µM
Growth inhibition percentage (GI%) (SK-MEL-28 [2]; SK-MEL-28, one dose 10 µM): 72.8%
GI50 (T-47D; [11]): 0.39 µM
inhibition at 10 µM (T-47D): 70%
GI50 (OVCAR-4; [11]): 0.063 µM
inhibition at 10 µM (OVCAR-4): 65.3%
GI50 (SNB-19; [11]): 0.428 µM
inhibition at 10 µM (SNB-19): 68%
GI50 (HT29; HT-29, five concentrations 0.01-100 µM): 0.297 µM
inhibition at 10 µM (HT29): 78.2%
GI50 (HS 578 T; [11]): 11.7 µM
inhibition at 10 µM (HS 578 T): 32%
Apoptosis, early (HL60 cells [3]): 8.42%
Apoptosis, late (HL60 cells [3]): 12.66%
Apoptosis, total (annexin V-FITC positive cells) (HL60 cells [3]): 24.31%
Necrosis (HL60 cells [3]): 3.23%
GI50 (MOLT-4 [4]; [11]): 0.164 µM
inhibition at 10 µM (MOLT-4 [4]): 97.3%
GI50 (HCT-116): 0.121 µM
inhibition at 10 µM (HCT-116): 81.6%
GI50 (MCF7; [11]): 0.253 µM
inhibition at 10 µM (MCF7): 91.2%
GI50 (LOX IMVI; [11]): 0.0997 µM
inhibition at 10 µM (LOX IMVI): 90.3%
GI50 (OVCAR-5; [11]): 6.48 µM
inhibition at 10 µM (OVCAR-5): 67.5%
%G0-G1 (HL60 cells [5]): 36.28%
%G2-M (HL60 cells [5]): 34.29%
%Pre-G1 (HL60 cells [5]): 24.31%
%S (HL60 cells [5]): 29.43%

C#Cc1cccc(Nc2ncnc3cc(OCCOC)c(OCCOC)cc23)c1 [Erlotinib, erlotinib]
GI50 (IGROV1): 0.316 µM
GI50 (OVCAR-3): 3.98 µM
GI50 (UACC-257): 100 µM
GI50 (RXF 393): 3.98 µM
GI50 (SK-MEL-2): 6.31 µM
GI50 (MOLT-4 [6]): 25.1 µM
GI50 (CCRF-CEM [7]): 50.1 µM
GI50 [8]: 23.7 µM
CC50 [8, 12]: 93.3 µM
TGI (subpanel average) [8]: 77.89 µM
GI50 (HOP-62): 15.8 µM
GI50 (HCT-15): 3.98 µM
GI50 (SK-OV-3): 0.5 µM
GI50 [9]: 27.9 µM
CC50 [9, 12]: > 100 µM
TGI (subpanel average) [9]: 96.57 µM
GI50 (SK-MEL-28 [10]): 50.1 µM

COc1cc2ncnc(Nc3ccc(F)c(Cl)c3)c2cc1OCCCN1CCOCC1 [Gefitinib, gefitinib]
GI50 (IGROV1): 3.16 µM
GI50 (UACC-257): 2.51 µM
GI50 (RXF 393): 3.16 µM
GI50 (SK-MEL-2): 10 µM
GI50 (MOLT-4 [6]): 2 µM
GI50 (CCRF-CEM [7]): 0.398 µM
GI50 [8]: 3.68 µM
TGI (subpanel average) [8]: 12.49 µM
GI50 (HOP-62): 3.16 µM
GI50 (HCT-15): 3.98 µM
GI50 (SK-OV-3): 1 µM
GI50 [9]: 2.56 µM
TGI (subpanel average) [9]: 12.07 µM
GI50 (SK-MEL-28 [10]): 3.16 µM

CS(=O)(=O)c1ccc(C(=O)Nc2ccc(Cl)c(-c3ccccn3)c2)c(Cl)c1 [Vismodegib, vismodegib]
GI50 (IGROV1): 100 µM
GI50 (OVCAR-3): 50.1 µM
GI50 (UACC-257): 50.1 µM
GI50 (RXF 393): 25.1 µM
GI50 (SK-MEL-2): 39.8 µM
GI50 (MOLT-4 [6]): 31.6 µM
GI50 (CCRF-CEM [7]): 31.6 µM
GI50 (HOP-62): 79.4 µM
GI50 (HCT-15): 31.6 µM
GI50 (SK-MEL-28 [10]): 39.8 µM
